The values that follow come from patent US20230106174A1, “RAS INHIBITORS” (Revolution Medicines, Inc., priority 2021, published 2023).

Like-named read-outs stand apart in the source and are kept apart here.

Usually IC50 stands for the concentration that gives 50% inhibition.

Data set [1] addresses T1, K-Ras G12C (Homo sapiens, UniProt P01116+P62937, G12C).
T1 construct: endogenous in cells; host or cells: NCI-H358
The experiment in a line: pERK potency assay in NCI-H358 cells (AlphaLISA SureFire or In-Cell Western). The data set is classed as cell-based. The conditions noted are these: 4 hours incubation. How it is done: The purpose of this assay was to measure the ability of test compounds to inhibit K-Ras in cells. […] This procedure measures a decrease in cellular pERK in response to test compounds. The procedure described below in NCI-H358 cells is applicable to K-Ras G12C. […]
NCI-H358 cells were grown and maintained using media and procedures recommended by the ATCC. On the day prior to compound addition, cells were plated in 384-well cell culture plates (40 μl/well) and grown overnight in a 37° C., 5% CO2 incubator. Test compounds were prepared in 10, 3-fold dilutions in DMSO, with a high concentration of 10 mM. On the day of assay, 40 nL of test compound was added to each well of cell culture plate using an Echo550 liquid handler (LabCyte®). Concentrations of test compound were tested in duplicate. After compound addition, cells were incubated 4 hours at 37° C., 5% CO2. Following incubation, culture medium was removed and cells were washed once with phosphate buffered saline.
In some experiments, cellular pERK level was determined using the AlphaLISA SureFire Ultra p-ERK1/2 Assay Kit (PerkinElmer). Cells were lysed in 25 μL lysis buffer, with shaking at 600 RPM at room temperature. Lysate (10 μL) was transferred to a 384-well Opti-plate (PerkinElmer) and 5 μL acceptor mix was added. After a 2-hour incubation in the dark, 5 μL donor mix was added, the plate was sealed, and incubated 2 hours at room temperature. Signal was read on an Envision plate reader (PerkinElmer) using standard AlphaLISA settings. Analysis of raw data was carried out in Excel (Microsoft) and Prism (GraphPad). Signal was plotted vs. the decadal logarithm of compound concentration, and IC50 was determined by fitting a 4-parameter sigmoidal concentration response model.
In other experiments, cellular pERK was determined by In-Cell Western. Following compound treatment, cells were washed twice with 200 μL tris buffered saline (TBS) and fixed for 15 minutes with 150 μL 4% paraformaldehyde in TBS. Fixed cells were washed 4 times for 5 minutes with TBS containing 0.1% Triton X-100 (TBST) and then blocked with 100 μL Odyssey blocking buffer (LI-COR) for 60 minutes at room temperature. […] Cells were washed 4 times for 5 minutes with TBST. Secondary antibody (IR-800CW rabbit, LI-COR, diluted 1:800) and DNA stain DRAQ5 (LI-COR, diluted 1:2000) were added and incubated 1-2 hours at room temperature. Cells were washed 4 times for 5 minutes with TBST. Plates were scanned on a Li—COR Odyssey CLx Imager. Analysis of raw data was carried out in Excel (Microsoft) and Prism (GraphPad). Signal was plotted vs. the decadal logarithm of compound concentration, and IC50 was determined by fitting a 4-parameter sigmoidal concentration response model.
Background: In Alpha technology, singlet oxygen from a donor bead excites a nearby acceptor bead.

In data set [2] the test system is NCI-H358 (K-Ras G12C). Put plainly: CellTiter-Glo cell viability assay, 5-day treatment, NCI-H358. The data set is classed as cell-based. The conditions noted are these: Homo sapiens, NCI-H358, 120 h. The source says:
Determination of Cell Viability in RAS Mutant Cancer Cell Lines
Protocol: CellTiter-Glo® Cell Viability Assay
Note—The following protocol describes a procedure for monitoring cell viability of K-Ras mutant cancer cell lines in response to a compound of the invention. Other RAS isoforms may be employed, though the number of cells to be seeded will vary based on cell line used.
The purpose of this cellular assay was to determine the effects of test compounds on the proliferation of three human cancer cell lines (NCI-H358 (K-Ras G12C), AsPC-1 (K-Ras G12D), and Capan-1 (K-Ras G12V)) over a 5-day treatment period by quantifying the amount of ATP present at endpoint using the CellTiter-Glo® 2.0 Reagent (Promega).
Cells were seeded at 250 cells/well in 40 μL of growth medium in 384-well assay plates and incubated overnight in a humidified atmosphere of 5% CO2 at 37° C. On the day of the assay, 10 mM stock solutions of test compounds were first diluted into 3 mM solutions with 100% DMSO. Well-mixed compound solutions (15 μL) were transferred to the next wells containing 30 μL of 100% DMSO, and repeated until a 9-concentration 3-fold serial dilution was made (starting assay concentration of 10 μM). Test compounds (132.5 nL) were directly dispensed into the assay plates containing cells. The plates were shaken for 15 seconds at 300 rpm, centrifuged, and incubated in a humidified atmosphere of 5% CO2 at 37° C. for 5 days. On day 5, assay plates and their contents were equilibrated to room temperature for approximately 30 minutes. CellTiter-Glo® 2.0 Reagent (25 μL) was added, and plate contents were mixed for 2 minutes on an orbital shaker before incubation at room temperature for 10 minutes. Luminescence was measured using the PerkinElmer Enspire. Data were normalized by the following: (Sample signal/Avg. DMSO)*100. The data were fit using a four-parameter logistic fit.

T1 sequence (P01116 1-188 isoform P01116-2 G12C): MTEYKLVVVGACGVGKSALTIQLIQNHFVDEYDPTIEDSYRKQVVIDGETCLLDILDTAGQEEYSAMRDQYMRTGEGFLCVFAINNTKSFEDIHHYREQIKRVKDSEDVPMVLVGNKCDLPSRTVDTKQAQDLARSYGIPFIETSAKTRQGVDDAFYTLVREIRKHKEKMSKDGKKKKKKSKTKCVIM
T1 sequence (P62937 whole entry): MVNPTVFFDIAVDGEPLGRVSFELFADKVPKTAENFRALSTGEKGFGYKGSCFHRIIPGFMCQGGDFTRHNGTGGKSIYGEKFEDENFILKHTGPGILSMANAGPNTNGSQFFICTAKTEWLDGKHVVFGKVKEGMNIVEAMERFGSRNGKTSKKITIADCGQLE

In turn, `C=CCOC(=O)N[C@H]1Cc2nc(no2)-c2ccc3c(c2)c(c(-c2cccnc2[C@H](C)OC)n3CC)CC(C)(C)COC(=O)[C@@H]2CCCN(N2)C1=O` came in with a ring closure, yield of all isomers (from C=CCOC(=O)NC(Cc1nc(-c2ccc3c(c2)c(CC(C)(C)COC(=O)[C@@H]2CCCNN2)c(-c2cccnc2[C@H](C)OC)n3CC)no1)C(=O)O, amide bond, HATU/DIPEA, DCM, 139.0 mM, 25.0 °C, 16.0 h) of 33%.

`CCn1c(-c2cc(N3CCN(C(=O)OCc4ccccc4)CC3)cnc2[C@H](C)OC)c2c3cc(ccc31)-c1csc(n1)C[C@H](NC(=O)OC(C)(C)C)C(=O)N1CCC[C@H](N1)C(=O)OCC(C)(C)C2` came in with a ring closure, yield of all isomers (from CCn1c(-c2cc(N3CCN(C(=O)OCc4ccccc4)CC3)cnc2[C@H](C)OC)c(CC(C)(C)CO)c2cc(-c3csc(C[C@H](NC(=O)OC(C)(C)C)C(=O)N4CCC[C@@H](C(=O)O)N4)n3)ccc21, ester bond, EDCI/HOBt/DIEA, MeCN, 10.3 mM, 25.0 °C, 16.0 h) of 54.8%.

As to `CCn1c(-c2cc(N3CCN4CCCC[C@@H]4C3)cnc2[C@H](C)OC)c2c3cc(ccc31)-c1cccc(c1)C[C@H](NC(=O)OC(C)(C)C)C(=O)N1CCC[C@H](N1)C(=O)OCC(C)(C)C2`, the ring closure, yield of all isomers (from CCn1c(-c2cc(N3CCN4CCCC[C@@H]4C3)cnc2[C@H](C)OC)c(CC(C)(C)CO)c2cc(-c3cccc(C[C@H](NC(=O)OC(C)(C)C)C(=O)N4CCC[C@@H](C(=O)O)N4)c3)ccc21, ester bond, EDCI/HOBt/DIPEA, DCM, 11.3 mM, 25.0 °C, 16.0 h) came out at 62%.

The compound `CCn1c(-c2cccnc2[C@H](C)OC)c2c3cc(ccc31)-c1nc(no1)C[C@H](NC(=O)OC(C)(C)C)C(=O)N1CCC[C@H](N1)C(=O)OCC(C)(C)C2` came in with a ring closure, yield of all isomers (from CCn1c(-c2cccnc2[C@H](C)OC)c(CC(C)(C)CO)c2cc(-c3nc(C[C@H](NC(=O)OC(C)(C)C)C(=O)N4CCC[C@@H](C(=O)O)N4)no3)ccc21, ester bond, EDCI/HOBT/DIPEA, DCM, 6.8 mM, 25.0 °C, 16.0 h) of 18%.

In the case of `CO[C@@H](C)c1ncccc1-c1c2c3cc(ccc3n1CC(F)(F)F)-c1coc(n1)C[C@H](NC(=O)OCc1ccccc1)C(=O)N1CCC[C@H](N1)C(=O)OCC(C)(C)C2`, the ring closure, yield of all isomers (from CO[C@@H](C)c1ncccc1-c1c(CC(C)(C)COC(=O)[C@@H]2CCCNN2)c2cc(-c3coc(C[C@H](NC(=O)OCc4ccccc4)C(=O)O)n3)ccc2n1CC(F)(F)F, amide bond, EDCI/HOBt/DIPEA, DCM, 6.06 mM, 25.0 °C, 16.0 h) came to 21%.

For the setting “from CO[C@@H](C)c1ncccc1-c1c(CC(C)(C)CO)c2cc(C3CCCN(C[C@H](NC(=O)OC(C)(C)C)C(=O)N4CCC[C@@H](C(=O)O)N4)C3)ccc2n1CC(F)(F)F, ester bond, EDCI/HOBT/DIPEA, DCM, 6.2 mM, 25.0 °C”, `CO[C@@H](C)c1ncccc1-c1c2c3cc(ccc3n1CC(F)(F)F)C1CCCN(C1)C[C@H](NC(=O)OC(C)(C)C)C(=O)N1CCC[C@H](N1)C(=O)OCC(C)(C)C2` came in with a ring closure, yield of all isomers of 17%.

In turn, `CO[C@@H](C)c1ncccc1-c1c2c3cc(ccc3n1CC(F)(F)F)C1CCN(C1)C[C@H](NC(=O)OC(C)(C)C)C(=O)N1CCC[C@H](N1)C(=O)OCC(C)(C)C2` displayed a ring closure, yield of all isomers (from CO[C@@H](C)c1ncccc1-c1c(CC(C)(C)CO)c2cc(C3CCN(C[C@H](NC(=O)OC(C)(C)C)C(=O)N4CCC[C@@H](C(=O)O)N4)C3)ccc2n1CC(F)(F)F, ester bond, EDCI/HOBt/DIPEA, DCM, 6.97 mM, 25.0 °C, 16.0 h) of 21%.

`CO[C@@H](C)c1ncccc1-c1c2c3cc(ccc3n1CC(F)(F)F)C1CN(C1)C[C@H](NC(=O)OC(C)(C)C)C(=O)N1CCC[C@H](N1)C(=O)OCC(C)(C)C2`: the ring closure, yield of all isomers (from CO[C@@H](C)c1ncccc1-c1c(CC(C)(C)CO)c2cc(C3CN(C[C@H](NC(=O)OC(C)(C)C)C(=O)N4CCC[C@@H](C(=O)O)N4)C3)ccc2n1CC(F)(F)F, ester bond, EDCI/HOBt/DIPEA, DCM, 6.45 mM, 30.0 °C, 16.0 h) came out at 37%.

On to `C=CC(=O)N1CCOC2(CCN(C(=O)N(C)[C@H](C(=O)N[C@H]3Cc4cncc(n4)-c4ccc5c(c4)c(c(-c4cccnc4[C@H](C)OC)n5CC)CC(C)(C)COC(=O)[C@@H]4CCCN(N4)C3=O)C(C)C)CC2)C1` (atropisomer, axis not shown) [Example A36], for which the IC50 in data set [1] was > 1000 nM.

Take `C=CC(=O)N1COC2(CCN(C(=O)N(C)[C@H](C(=O)N[C@H]3CC4=NC=C(O4)c4ccc5c(c4)c(c(-c4cccnc4[C@H](C)OC)n5CC)CC(C)(C)COC(=O)[C@@H]4CCCN(N4)C3=O)C(C)C)CC2)C1` (atropisomer, axis not shown) [Example A37]: in data set [1], the IC50 was > 1000 nM.

For `C=CC(=O)N1CCN(CC)C2(CCN(C(=O)N(C)[C@H](C(=O)N[C@H]3C[C@H]4CN(CCO4)c4ccc5c(c4)c(c(-c4cccnc4[C@H](C)OC)n5CC)CC(C)(C)COC(=O)[C@@H]4CCCN(N4)C3=O)C(C)C)CC2)C1` (atropisomer, axis not shown) [Example A38], the IC50 in data set [1] and in data set [2] was > 1000 nM each time.

Consider `CCn1c(-c2cccnc2[C@H](C)OC)c2c3cc(ccc31)-c1cc(C(F)F)cc(n1)C[C@H](NC(=O)[C@H](C(C)C)N(C)C(=O)N1CCC3(CCN(C(=O)/C=C/CN(C)C)C3)CC1)C(=O)N1CCC[C@H](N1)C(=O)OCC(C)(C)C2` (atropisomer, axis not shown) [Example A39], for which, in data set [2], the IC50 was > 1000 nM.

`C=CC(=O)N1CC2(CCN(C(=O)N(C)[C@H](C(=O)N[C@H]3C[C@H]4CN(CCO4)c4ccc5c(c4)c(c(-c4cccnc4[C@H](C)OC)n5CC)CC(C)(C)COC(=O)[C@@H]4CCCN(N4)C3=O)C(C)C)CC2)C1` (atropisomer, axis not shown) [Example A121]: in data set [1], the IC50 was > 1000 nM.

In the case of `C=CC(=O)N1CCOC2(CCN(C(=O)N(C)[C@H](C(=O)N[C@H]3Cc4cncc(c4)-c4ccc5c(c4)c(c(-c4cccnc4[C@H](C)OC)n5CC)CC(C)(C)COC(=O)[C@@H]4CCCN(N4)C3=O)C(C)C)CC2)C1` (atropisomer, axis not shown) [Example A124], in data set [1], the IC50 is > 1000 nM.

On to `C=CC(=O)N1CCOC2(CCN(C(=O)N(C)[C@H](C(=O)N[C@H]3C[C@@]4(C)CN(CCO4)c4ccc5c(c4)c(c(-c4cccnc4[C@H](C)OC)n5CC)CC(C)(C)COC(=O)[C@@H]4CCCN(N4)C3=O)C(C)C)CC2)C1` (atropisomer, axis not shown) [Example A130], for which, in data set [1], the IC50 is > 890 nM.

`C=CC(=O)N1CCOC2(C1)CN(C(=O)N(C)[C@H](C(=O)N[C@H]1C[C@H]3CN(CCO3)c3ccc4c(c3)c(c(-c3cccnc3[C@H](C)OC)n4CC)CC(C)(C)COC(=O)[C@@H]3CCCN(N3)C1=O)C(C)C)C2` (atropisomer, axis not shown) [Example A136]: the IC50 in data set [1] is > 1000 nM.

As to `C=CC(=O)N1CCN(C)C2(CCN(C(=O)N(C)[C@H](C(=O)N[C@H]3C[C@H]4CN(CCO4)c4ccc5c(c4)c(c(-c4cccnc4[C@H](C)OC)n5CC)CC(C)(C)COC(=O)[C@@H]4CCCN(N4)C3=O)C(C)C)CC2)C1` (atropisomer, axis not shown) [Example A189], the IC50 in data set [1] was > 1000 nM.
